From patent US5608056A, “Substituted 3-pyrrolidinylthio-carbapenems as antimicrobial agents” (Fujisawa Pharmaceutical Co., Ltd., priority 1992, dated 1997)

System: P. aeruginosa IAM1095
Assay: in vitro antimicrobial activity, two-fold agar-plate dilution method (MIC)
Format: cell-based
Conditions: Pseudomonas aeruginosa, heart infusion agar (HI-agar), 10^6 viable cells per ml, 37° C., 20 hours, read-out: minimal inhibitory concentration (MIC)
Description: in vitro Antimicrobial Activity was determined by the two-fold agar-plate dilution method as described below.
One loopful of an overnight culture of a test strain in Trypticase-soy broth (10^6 viable cells per ml) was streaked on heart infusion agar (HI-agar) containing graded concentrations of the test compound, and the minimal inhibitory concentration (MIC) was expressed in terms of μg/ml after incubation at 37° C. for 20 hours.

C[C@@H](O)[C@H]1C(=O)N2C(C(=O)O)=C(S[C@@H]3CN[C@H](CC[n+]4ccn(C)c4)C3)[C@H](C)[C@H]12 [Example 4-4), (4R,5S,6S)-6-[(1R)-1-hydroxyethyl]-4-methyl-3-[(2R,4S)-2-{2-(3-methyl-1-imidazolio)ethyl}pyrrolidin-4-yl]thio-7-oxo-1-azabicyclo[3.2.0]hept-2-ene-2-carboxylic acid chloride]
MIC: 0.78 µg/mL
